Laboratory results: US20160312315A1, “Methods and Compositions for Determining Virus Susceptibility to Integrase Inhibitors” (Laboratory Corporation of America Holdings, priority 2011, published 2016)

Tests used:
Format in all cases: cell-based, HIV-1
[1] = tested on: other Y143X plus T97A site directed mutant viruses
Method: (§1) Raltegravir susceptibility tests performed with resistance test vectors were carried out using packaging host and target host cells consisting of the human embryonic kidney cell line 293. Susceptibility tests were carried out with the RTV libraries by using viral particles comprising the RTV libraries to infect a host cell in which the expression of the indicator gene is measured. The amount of indicator gene (luciferase) activity detected in infected cells is used as a direct measure of “infectivity,” i.e., the ability of the virus to complete a single round of replication. Thus, drug susceptibility can be determined by plotting the amount of luciferase activity produced by patient derived viruses in the presence of varying concentrations of the antiviral drug. By identifying the concentration of drug at which luciferase activity is half-maximum, the IC50 of the virus from which patient-derived segment(s) were obtained for the antiretroviral agent can be determined. […]
(§2) In the susceptibility tests, packaging host (293) cells were seeded in 10-cm-diameter dishes and were transfected one day after plating with test vector plasmid DNA and the envelope expression vector. […] Alternatively, cells were lysed, and luciferase was measured by adding Steady-Glo (Promega Corp.; Madison, Wis.) reagent directly to each well without aspirating the culture media from the well. […]

[2] = tested on: Y143R site directed mutant virus; test: PhenoSense raltegravir susceptibility assay, site directed mutant viruses; conditions: Y143R mutation alone, SDM virus vs NL4-3
Method: (§3) Raltegravir susceptibility tests performed with resistance test vectors were carried out using packaging host and target host cells consisting of the human embryonic kidney cell line 293. Susceptibility tests were carried out with the RTV libraries by using viral particles comprising the RTV libraries to infect a host cell in which the expression of the indicator gene is measured. The amount of indicator gene (luciferase) activity detected in infected cells is used as a direct measure of “infectivity,” i.e., the ability of the virus to complete a single round of replication. Thus, drug susceptibility can be determined by plotting the amount of luciferase activity produced by patient derived viruses in the presence of varying concentrations of the antiviral drug. By identifying the concentration of drug at which luciferase activity is half-maximum, the IC50 of the virus from which patient-derived segment(s) were obtained for the antiretroviral agent can be determined. The IC50 provides a direct measure of the susceptibility of the HIV infecting the patient to raltegravir.
as §2, with “vector. Transfections were performed using a calcium-phosphate co-precipitation procedure. The cell culture media containing the DNA precipitate was replaced with fresh medium, from one to 24 hours, after transfection.” for “vector.”
(§4) Site directed mutant (SDM) viruses were created that had only the specific integrase mutation listed on the x-axis of FIG. 8A, 8B, or 8C. FIGS. 8A, 8B, and 8C are graphs showing the fold change (FC) in raltegravir susceptibility of the SDM viruses, as compared to the raltegravir susceptibility of an NL4-3 virus and determined by the PhenoSense assay. […]

[3] = tested on: other Y143X (Y143H/C/S/G) site directed mutant viruses; test: as above; conditions: other Y143X substitutions alone, SDM viruses vs NL4-3
Method: as §3
as §2, with “vector. Transfections were performed using a calcium-phosphate co-precipitation procedure. The cell culture media containing the DNA precipitate was replaced with fresh medium, from one to 24 hours, after transfection.” for “vector.”
as §4

[4] = tested on: Y143R plus T97A site directed mutant virus; test: as above; conditions: SDM virus vs NL4-3
Method: as §3
as §2, with “vector. Transfections were performed using a calcium-phosphate co-precipitation procedure. The cell culture media containing the DNA precipitate was replaced with fresh medium, from one to 24 hours, after transfection.” for “vector.”
as §4

[5] = tested on: Y143C/G/S plus S230R site directed mutant viruses; test: as above; conditions: SDM viruses vs NL4-3
Method: as §1, §2

[6] = tested on: Y143R plus S230R site directed mutant virus; test: as above; conditions: SDM virus, compared with Y143R alone
Method: as §1, §2

**Q.** With `Cc1nnc(C(=O)NC(C)(C)c2nc(C(=O)NCc3ccc(F)cc3)c(O)c(=O)n2C)o1` [raltegravir] as the compound, how does the “fold change in IC50 (FC), reduction in RAL susceptibility” value (from here on “fold change in IC50 (FC), reduction”) [1] read?
**A.** The value was 7-16.

**Q.** What about the “fold change in IC50 (FC), reduction” value [2] of the same compound?
**A.** The value was 20.

**Q.** And the “fold change in IC50 (FC), reduction” value [3]?
**A.** The value was 3-6.

**Q.** What about the “fold change in IC50 (FC), reduction” value [4] of the same compound?
**A.** The value was 70.

**Q.** What about the “fold change in IC50 (FC), reduction” value [5] of the same compound?
**A.** Its value is 15-24.

**Q.** And the “further reduction in RAL susceptibility on addition of S230R” value [6]?
**A.** The value was “did not”.
